Data: ChEMBL document CHEMBL1147618, “Crucial amides for dimerization inhibitors of HIV-1 protease” (Bioorg Med Chem Lett, 2004)
pIC50: −log10 of the molar value.

Tests used:
[1] = biological target: Human immunodeficiency virus type 1 protease (Human immunodeficiency virus 1, UniProt Q72874); assay: Inhibitory concentration against Protease
[2] = biological target: Human immunodeficiency virus type 1 protease (Human immunodeficiency virus 1) (UniProt Q72874); assay: Relative loss of potency of compound in inhibiting Protease was determined

| SMILES | pIC50 [1] | Relative loss of potency [2] |
| --- | --- | --- |
| CC(C)C[C@H](NC(=O)[C@@H](NC(=O)CCCCCCCCCCCCCCC(=O)N(C)[C@@H](C(N)=O)C(=O)N[C@H](Cc1ccccc1)C(=O)O)[C@H](C)O)C(=O)N[C@@H](Cc1ccccc1)C(N)=O | 5.35 |  |
| CC(C)C[C@H](NC(=O)[C@@H](NC(=O)CCCCCCCCCCCCCCC(=O)N[C@@H](C(N)=O)C(=O)N[C@H](Cc1ccccc1)C(=O)O)[C@H](C)O)C(=O)N[C@@H](Cc1ccccc1)C(N)=O | 5.23 | 1 |
| CC(C)C[C@@H](C(=O)N[C@@H](Cc1ccccc1)C(N)=O)N(C)C(=O)[C@@H](NC(=O)CCCCCCCCCCCCCCC(=O)N[C@@H](C(N)=O)C(=O)N[C@H](Cc1ccccc1)C(=O)O)[C@H](C)O | 5.10 | 1.4 |
| CC(C)C[C@H](NC(=O)[C@@H](NC(=O)CCCCCCCCCCCCCCC(=O)N[C@@H](C(N)=O)C(=O)N(C)[C@H](Cc1ccccc1)C(=O)O)[C@H](C)O)C(=O)NCCc1ccccc1 | 5.24 |  |
| CC(C)C[C@H](NC(=O)[C@H]([C@H](C)O)N(C)C(=O)CCCCCCCCCCCCCCC(=O)N[C@@H](C(N)=O)C(=O)N[C@H](Cc1ccccc1)C(=O)O)C(=O)N[C@@H](Cc1ccccc1)C(N)=O | 5.08 | 1.4 |
| CC(C)C[C@H](NC(=O)[C@@H](NC(=O)CCCCCCCCCCCCCCC(=O)N[C@@H](C(N)=O)C(=O)N[C@H](Cc1ccccc1)C(=O)O)[C@H](C)O)C(=O)N(C)[C@@H](Cc1ccccc1)C(N)=O | 4.89 | 2.2 |
| CC(C)C[C@H](NC(=O)[C@@H](NC(=O)CCCCCCCCCCCCCCC(=O)N[C@@H](C(N)=O)C(=O)N(C)[C@H](Cc1ccccc1)C(=O)O)[C@H](C)O)C(=O)N[C@@H](Cc1ccccc1)C(N)=O | 5.02 | 1.6 |
